In US10377828B2, “Combination therapy for neoplasia treatment” (Boehringer Ingelheim International GmbH, priority 2013, dated 2019):
“Also recorded” adds a separate entry of the source.

Key:
Format in all cases: cell-based, human
DUCaP cells = experiment: 2D cell proliferation assay (CellTiter-Glo); conditions: 10% FCS-containing growth medium, 5 days, single agent or combination
Experimental: (§1) The following method was used to determine the inhibitory effect of IGF ligand-neutralizing mAbs and androgen signaling inhibitors on the growth of prostate cancer cell lines. Assays were performed in cell growth medium containing 10% serum.
(§2) Adherent cells were detached with trypsin/EDTA solution (GIBCO, #043-9031 FU), resuspended in growth medium, centrifuged, resuspended in assay medium (supplemented with 10% heat inactivated FCS and 2 mM L-glutamine) and diluted to 5,000-40,000 cells per mL. 100 μL/well cell suspension was added to each well of a sterile flat-bottom white 96-well plate (PerkinElmer, #6005280) and plates were incubated overnight in a humidified incubator set at +37° C. and 5% CO2. On the next day supernatants were aspirated and 35 μL/well assay medium was added to all wells.
(§3) Serial dilutions of IGF mAb_1 and mAb_2 (1 μM highest concentration), MDV-3100 (10 μM highest concentration), abiraterone acetate (100 μM highest concentration) were prepared on a separate plate in assay medium (no growth factors or hormones supplemented). All agents were tested as single agents or in combination. All samples were tested in triplicate wells (100 μL/well assay). Plates were incubated for 5 days in a humidified incubator at +37° C. and 5% CO2. After this incubation period, CellTiter-Glo buffer, substrate and test plates were equilibrated to RT. CellTiter-Glo is a bioluminescent assay (Promega, #G7571) designed to determine the number of viable cells in culture, in which the generation of a luminescent signal is proportional to the amount of ATP present in cells. 100 μL of freshly mixed CellTiter-Glo reagent was added to each well. After 2 min on an orbital shaker (MTS 2/4, IKA) and 10 min incubation at RT, luminescence was recorded (luminescence reader (Genios Pro, Tecan or Victor X4, Perkin Elmer), integration time 1 sec).

MDA PCa 2b cells = experiment: 2D cell proliferation assay (CellTiter-Glo); conditions: 10% FCS-containing growth medium, 5 days, single agent or combination
Experimental: as §1, §2, §3

VCaP cells [1] = experiment: 2D cell proliferation assay (CellTiter-Glo); conditions: 10% FCS-containing growth medium, 5 days, single agent or combination
Experimental: as §1, §2, §3

VCaP cells [2] = experiment: 3D soft agar cell proliferation assay; conditions: single agent or combination
Experimental: IGF mAb_2 was used for the treatment of VCaP cells in FIG. 2B. FIG. 2C (IGF mAb_1) and FIG. 2D (IGF mAb_2) show the results of MDA PCa 2b cells. […] In a 3D soft agar cell proliferation assay (FIG. 2G), VCaP cells were treated with abiraterone acetate and IGF mAb_2.

VCaP cells [3] = experiment: Thymidine incorporation assay; conditions: 96 hours, 10 μM MDV-3100 and/or 1 μM IGF mAb_1, compared to untreated controls
Experimental: VCaP cells were treated with 1 μM of IGF mAb_1 and 10 μM of MDV-3100 and the combination of both agents and incubated as triplicates in flat-bottom 96-well plates for 96 hours at a density of 5×10^4 cells per well, in the absence of R1881. For the last 24 hours of incubation, ^3H-thymidine (0.4 μCi/well; PerkinElmer, NET355001 MC) was added. Afterwards, the plates were frozen and incubated at −20° C. for 24 h. For harvesting, the plates were thawed and 40 μL Trypsin was added to each well to detach the cell fragments. The suspension was transferred to filter plates. The plates were then washed three times with distilled water and dried at 60° C. for 3 h. 25 μL per well Microscint were added and the proliferation rate was determined by measuring thymidine incorporation (CPM; counts per minute) using a liquid scintillation counter (1450 Microbeta Wallac Trilux, Perkin-Elmer).

VCaP cells [4] = experiment: Assessment of caspase 3 activity (apoptosis induction); conditions: 10 μM MDV-3100 and/or 1 μM mAb, up to 96 hours
Experimental: To acquire live cell images of cells undergoing caspase-3/7 mediated apoptosis upon treatment with different concentrations of MDV-3100, IGF mAb_1, and the combination of both agents, the CellPlayer™ 96-Well Kinetic Caspase-3/7 Reagent (Essen BioScience; #4440) was used. 50000 VCaP cells/100 μl/well were seeded and treated on the next day with the respective concentrations of both agents in growth medium in the absence of R1881. The Caspase-3/7 reagent was diluted to a final concentration of 5 μM in 100 μl per well of growth medium and added to the medium. The plate was placed within a microplate tray into the IncuCyte™ 2011A and 3 images per well were acquired every 4 hours for 7 days using the phase contrast and fluorescence channels.

VCaP cells [5] = experiment: Cell cycle analysis using flow cytometry (propidium iodide)
Experimental: 4×10^5 VCaP cells were treated with 1 μM of IGF mAb_1 and 10 μM of MDV-3100, and the combination of both agents, and incubated in 6-well plates at 37° C. for 24 h, 48 h and 72 h. Subsequently, the supernatant was transferred to FACS tubes, adherent cells were detached with trypsin and collected in the respective FACS tubes. After centrifugation, the medium was discarded and the cell pellet was fixed in ice-cold 70% ethanol for a minimum of 2 h at 4° C. After removing the ethanol entirely, fixed cells were stained with propidium iodide (10 μg/ml; Sigma; P4864-10 mL) in a hypotonic buffer solution (0.1% sodium citrate, 0.1% (v/v) triton X-100, 100 μg/ml DNase-free RNase A) and incubated in the dark at room temperature for 30 minutes. Cells were analyzed using the Becton Dickinson FACS Canto II Flow cytometer and data was evaluated with the FACS Diva software.

[6] = test system: IGF-1R, AR, PTEN levels and AKT-Ser473 phosphorylation in VCaP, MDA PCa 2b and DUCaP cells; experiment: Western blot protein analysis after 24 hours of treatment; conditions: 24 hours treatment
Experimental: One×10^6 and 4×10^6 cells were plated in 6-well plates and 10 cm dishes, respectively, in medium containing 10% heat-inactivated FCS and after over night incubation the cells were treated with 1 μM of MDV-3100 and 100 nM of IGF mAb_1 or a combination of antibody and AR signaling inhibitor. After 24 hours the cells were lyzed on the plates, total protein was isolated and protein concentration was determined by Bradford assay. Cell lysates were snap frozen and stored at −80° C.
(§4) Western blotting was performed loading 30-50 μg of total protein lysates on a 4-12% Bis-Tris PAG (Bio Rad) and blotting with the Bio Rad trans-Blot® Turbo system using a PVDF membrane. […] Cell cycle regulators and markers of proliferation and apoptosis were analyzed using the following antibodies: p21 Waf1/Cip1 (12D1; #2947, Cell Signaling; 1:1000), CDK2 (78B2; #2546, Cell Signaling; 1:1000), Cyclin E (C-19; sc-198, Santa Cruz; 1:1000), PCNA (#2586, Cell Signaling; 1:2000), and PARP (#9542, Cell Signaling; 1:1000).
(§5) Antibody dilutions were prepared in 5% BSA or 5% non-fat dry milk in TBS-0.5% Tween20 (TBS-T). Following washes in TBS-T membranes were incubated with a polyclonal HRP-conjugated goat anti-rabbit secondary antibody (DAKO, #P0448) for 1 hour and after further washes in TBS-T antibody reactivity was detected by means of ECL/Super ECL (GE Healthcare) and exposure on ImageQuant LAS4000. […]

[7] = test system: AKT phosphorylation, PARP cleavage, p21, CDK2, Cyclin E, PCNA in VCaP cells; experiment: Western blot time course of AKT phosphorylation, apoptosis and cell cycle regulators
Experimental: One×10^6 and 4×10^6 cells were plated in 6-well plates and 10 cm dishes, respectively, in medium containing 10% […] and AR signaling inhibitor. […] Cell lysates were snap frozen and stored at −80° C.
as §4, §5

VCaP cells [8] = experiment: Analysis of cellular doubling time; conditions: 10 μM MDV-3100, compared to untreated controls
Experimental: 3×10^5 cells/well VCaP cells were seeded in 2 mL cell culture medium per well. 24 hrs post seeding the cell culture medium was removed and replaced with DMEM+10% FCS without R1881. 24 hr following the medium change the pre-treatment wells were harvested and counted with the Beckman Coulter™ Vi-CELL XR 2.03, and 10 μM of MDV-3100 was added to the remaining cells. Four times every 24 hr VCaP cell number was determined in 3 wells for each time point. The mean value was calculated from these triplicates. To determine the generation time, following formula is used: […]

| SMILES | effect on 2D cell proliferation (in words) (DUCaP cells) | effect on 2D cell proliferation (in words) (MDA PCa 2b cells) | effect on 2D cell proliferation (in words) (VCaP cells [1]) | effect on 3D cell proliferation (in words) (VCaP cells [2]) | reduction of proliferative activity (thymidine incorporation) (VCaP cells [3]) | induction of caspase 3 activity / apoptosis (in words) (VCaP cells [4]) | G1/G0 population (VCaP cells [5]; 10 μM MDV-3100, compared to untreated controls) | sub-G1 apoptotic cell population (VCaP cells [5]; 24 h, 48 h and 72 h, 10 μM MDV-3100 and/or 1 μM mAb) | AR protein levels [6] | IGF-1R levels [6] | p21 levels ([7]; 10 μM MDV-3100, at 8 and 24 hours) | PARP cleavage ([7]; 10 μM MDV-3100 and/or 1 μM IGF mAb_1, 8 h, 24 h, 48 h and 72 h) | cellular doubling time (generation time) (VCaP cells [8]) |
| --- | --- | --- | --- | --- | --- | --- | --- | --- | --- | --- | --- | --- | --- |
| CC(=O)O[C@H]1CC[C@@]2(C)C(=CC[C@@H]3[C@@H]2CC[C@]2(C)C(c4cccnc4)=CC[C@@H]32)C1 [abiraterone acetate] | inhibition of cell proliferation at higher concentrations | inhibition of cell proliferation at higher concentrations | inhibition of cell proliferation at higher concentrations | inhibition of cell proliferation at higher concentrations |  |  |  |  |  |  |  |  |  |
| CNC(=O)c1ccc(N2C(=S)N(c3ccc(C#N)c(C(F)(F)F)c3)C(=O)C2(C)C)cc1F [MDV-3100, 4-{3-[4-cyano-3-(trifluoromethyl)phenyl]-5,5-dimethyl-4-oxo-2-sulfanylideneimidazolidin-1-yl}-2-fluoro-N-methylbenzamide] | inhibition of cell proliferation | inhibition of cell proliferation | inhibition of cell proliferation |  | approximately 50% | did not induce caspase 3 activity | increased | did not induce; also recorded: does not change | slightly increased | slightly decreased | increased | did not induce | prolonged cellular doubling time |
